# In PubChem BioAssay AID2060484 (Molecular Pharmacology Branch, DTP, NCI, 2025):
# Test system: SUM149PT spheroids with HUVEC/MSC, viability
# Assay: Anticancer human tumor SUM149PT cell line growth inhibition [GQUAD];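 further: spheroids exposed to drugs for seven days before readout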;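 on viability, T/C: percent viability relative to DMSO vehicle control taken as 100%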
# Conditions: for IC50: curve of first compound; for viability, T/C: stronger effect = lower value
# In short: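 Viability of tumor cells grown as complex spheroids with endothelial and stromal cells, exposed to drug combinations. Top concentration at or near clinical Cmax (else 10 microM), diluted in half-log increments.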
# [1] = second compound 0.0316 µM, first compound 0.0316 µM
# [2] = second compound 0.0316 µM, first compound 0.316 µM
# [3] = second compound 0.1 µM, first compound 0.0316 µM
# [4] = second compound 0.1 µM, first compound 0.316 µM
# [5] = second compound 0.316 µM, first compound 0.0316 µM
# [6] = second compound 0.316 µM, first compound 0.316 µM
# [7] = second compound 1 µM, first compound 0.0316 µM
# [8] = second compound 1 µM, first compound 0.316 µM
# [9] = second compound 3.16 µM, first compound 0.0316 µM
# [10] = second compound 3.16 µM, first compound 0.316 µM
# [11] = second compound 10 µM, first compound 0.0316 µM
# [12] = second compound 10 µM, first compound 0.316 µM
smiles,measurement,setting,value
C=CCn1c(=O)c2cnc(Nc3ccc(N4CCN(C)CC4)cc3)nc2n1-c1cccc(C(C)(C)O)n1 + Cc1[nH]c2ccc(F)cc2c1-c1nc2c3cccnc3c3ncccc3c2[nH]1,IC50,second compound 0.0316 µM,0.188 µM
same,IC50,second compound 0.1 µM,0.192 µM
same,IC50,second compound 0.316 µM,0.191 µM
same,IC50,second compound 1 µM,0.181 µM
same,IC50,second compound 3.16 µM,0.174 µM
same,IC50,second compound 10 µM,0.189 µM
same,"viability, T/C",[1],98.9%
same,"viability, T/C","second compound 0.0316 µM, first compound 0.1 µM",67%
same,"viability, T/C",[2],34.8%
same,"viability, T/C","second compound 0.0316 µM, first compound 1 µM",21%
same,"viability, T/C","second compound 0.0316 µM, first compound 3.16 µM",10.4%
same,"viability, T/C","second compound 0.0316 µM, first compound 10 µM",7.37%
same,"viability, T/C",[3],91.1%
same,"viability, T/C","second compound 0.1 µM, first compound 0.1 µM",73.5%
same,"viability, T/C",[4],30.3%
same,"viability, T/C","second compound 0.1 µM, first compound 1 µM",21.4%
same,"viability, T/C","second compound 0.1 µM, first compound 3.16 µM",11.7%
same,"viability, T/C","second compound 0.1 µM, first compound 10 µM",7.7%
same,"viability, T/C",[5],94.7%
same,"viability, T/C","second compound 0.316 µM, first compound 0.1 µM",72.5%
same,"viability, T/C",[6],31.1%
same,"viability, T/C","second compound 0.316 µM, first compound 1 µM",21.9%
same,"viability, T/C","second compound 0.316 µM, first compound 3.16 µM",10.5%
same,"viability, T/C","second compound 0.316 µM, first compound 10 µM",11.6%
same,"viability, T/C",[7],85.8%
same,"viability, T/C","second compound 1 µM, first compound 0.1 µM",66.1%
same,"viability, T/C",[8],33.2%
same,"viability, T/C","second compound 1 µM, first compound 1 µM",22.6%
same,"viability, T/C","second compound 1 µM, first compound 3.16 µM",9.91%
same,"viability, T/C","second compound 1 µM, first compound 10 µM",9.92%
same,"viability, T/C",[9],84.2%
same,"viability, T/C","second compound 3.16 µM, first compound 0.1 µM",66.6%
same,"viability, T/C",[10],31%
same,"viability, T/C","second compound 3.16 µM, first compound 1 µM",20.3%
same,"viability, T/C","second compound 3.16 µM, first compound 3.16 µM",9.05%
same,"viability, T/C","second compound 3.16 µM, first compound 10 µM",8.88%
same,"viability, T/C",[11],88.7%
same,"viability, T/C","second compound 10 µM, first compound 0.1 µM",66.6%
same,"viability, T/C",[12],35.9%
same,"viability, T/C","second compound 10 µM, first compound 1 µM",20.1%
same,"viability, T/C","second compound 10 µM, first compound 3.16 µM",10.6%
same,"viability, T/C","second compound 10 µM, first compound 10 µM",9.87%
CC[C@@]1(O)C(=O)OCc2c1cc1n(c2=O)Cc2cc3c(CN(C)C)c(O)ccc3nc2-1 + CN(C)c1ccc(Nc2c3ccc(NC(=O)CCN4CCCC4)cc3nc3cc(NC(=O)CCN4CCCC4)ccc23)cc1,IC50,second compound 0.0316 µM,> 0.316 µM
same,IC50,second compound 0.1 µM,> 0.316 µM
same,IC50,second compound 0.316 µM,> 0.316 µM
same,IC50,second compound 1 µM,0.206 µM
same,IC50,second compound 3.16 µM,0.084 µM
same,IC50,second compound 10 µM,0.0981 µM
same,"viability, T/C","second compound 0.0316 µM, first compound 0.000999 µM",110%
same,"viability, T/C","second compound 0.0316 µM, first compound 0.00316 µM",87.6%
same,"viability, T/C","second compound 0.0316 µM, first compound 0.00999 µM",109%
same,"viability, T/C",[1],82.2%
same,"viability, T/C","second compound 0.0316 µM, first compound 0.0999 µM",55.9%
same,"viability, T/C",[2],57%
same,"viability, T/C","second compound 0.1 µM, first compound 0.000999 µM",102%
same,"viability, T/C","second compound 0.1 µM, first compound 0.00316 µM",102%
same,"viability, T/C","second compound 0.1 µM, first compound 0.00999 µM",103%
same,"viability, T/C",[3],88.4%
same,"viability, T/C","second compound 0.1 µM, first compound 0.0999 µM",56%
same,"viability, T/C",[4],57.2%
same,"viability, T/C","second compound 0.316 µM, first compound 0.000999 µM",95.6%
same,"viability, T/C","second compound 0.316 µM, first compound 0.00316 µM",92.1%
same,"viability, T/C","second compound 0.316 µM, first compound 0.00999 µM",90%
same,"viability, T/C",[5],83.6%
same,"viability, T/C","second compound 0.316 µM, first compound 0.0999 µM",51.6%
same,"viability, T/C",[6],52.9%
same,"viability, T/C","second compound 1 µM, first compound 0.000999 µM",87.8%
same,"viability, T/C","second compound 1 µM, first compound 0.00316 µM",88.2%
same,"viability, T/C","second compound 1 µM, first compound 0.00999 µM",80.2%
same,"viability, T/C",[7],78.3%
same,"viability, T/C","second compound 1 µM, first compound 0.0999 µM",54%
same,"viability, T/C",[8],47.6%
same,"viability, T/C","second compound 3.16 µM, first compound 0.000999 µM",94.7%
same,"viability, T/C","second compound 3.16 µM, first compound 0.00316 µM",84.4%
same,"viability, T/C","second compound 3.16 µM, first compound 0.00999 µM",102%
same,"viability, T/C",[9],69.7%
same,"viability, T/C","second compound 3.16 µM, first compound 0.0999 µM",47.9%
same,"viability, T/C",[10],45.1%
same,"viability, T/C","second compound 10 µM, first compound 0.000999 µM",92.5%
same,"viability, T/C","second compound 10 µM, first compound 0.00316 µM",90%
same,"viability, T/C","second compound 10 µM, first compound 0.00999 µM",86.4%
same,"viability, T/C",[11],74.2%
same,"viability, T/C","second compound 10 µM, first compound 0.0999 µM",48.7%
same,"viability, T/C",[12],44.9%
